Reference: patent US8236512B1, “Methods of developing terpene synthase variants” (Amyris, Inc., priority 2011, dated 2012)

Molecular target: Artemisia annua β-farnesene synthase (SEQ ID NO: 111) variant FS_C_8 F11S/V24D/L18I/M35T/T196S/Y288F/T319S/R348K/T385A/I434T/T446N/I460V/V467I (parent coding se (Artemisia annua, UniProt Q9FXY7))
Test: Steady-state kinetics of purified farnesene synthase variant FS_C_8
Assay type: biochemical
Conditions: purified enzyme

Artemisia annua β-farnesene synthase (SEQ ID NO: 111) variant FS_C_8 F11S/V24D/L18I/M35T/T196S/Y288F/T319S/R348K/T385A/I434T/T446N/I460V/V467I (parent coding se, sequence (Q9FXY7 whole entry F11S/L18I/V24D/M35T/T196S/Y288F/T319S/R348K): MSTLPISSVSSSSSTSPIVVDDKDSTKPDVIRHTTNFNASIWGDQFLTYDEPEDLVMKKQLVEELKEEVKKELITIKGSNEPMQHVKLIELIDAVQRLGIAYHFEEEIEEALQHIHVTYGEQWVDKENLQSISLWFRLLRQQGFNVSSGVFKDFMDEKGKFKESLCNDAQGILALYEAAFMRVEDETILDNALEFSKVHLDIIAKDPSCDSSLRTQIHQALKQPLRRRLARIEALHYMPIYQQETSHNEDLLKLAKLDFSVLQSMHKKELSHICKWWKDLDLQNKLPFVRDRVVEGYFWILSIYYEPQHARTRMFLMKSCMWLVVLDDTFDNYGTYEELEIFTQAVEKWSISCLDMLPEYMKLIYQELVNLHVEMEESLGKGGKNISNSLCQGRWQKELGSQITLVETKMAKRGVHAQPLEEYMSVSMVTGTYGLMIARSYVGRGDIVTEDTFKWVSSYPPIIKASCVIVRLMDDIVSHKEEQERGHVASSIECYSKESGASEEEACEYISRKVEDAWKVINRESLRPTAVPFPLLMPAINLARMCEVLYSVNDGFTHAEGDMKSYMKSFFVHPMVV

SMILES: CC(C)=CCC/C(C)=C/CC/C(C)=C/CO[P@@](=O)(O)OP(=O)(O)O (stereo in doubt) [FPP, farnesyl diphosphate]
- Km: 1.55 ± 0.76 µM
